Assay results published in ChEMBL document CHEMBL1201862, “PubChem BioAssay data set” (2004).
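Test compounds were applied to cells in 96-well plates for 48 hours at 5 doses. GI50: concentration for 50% inhibition of growth.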 Active and inactive are the calls of the source. No stated cut-off is given here; in the data, active = GI50 up to about 1.1 µM and inactive = higher.

What was measured:
Assay in all cases: growth of human tumour cells (NCI), 48 h
A549 = system: A549
ACHN = system: ACHN
BT-549 = system: BT-549
CAKI-1 = system: CAKI-1
COLO 205 = system: COLO 205
DU-145 = system: DU-145
EKVX = system: EKVX
HOP-62 = system: HOP-62
Hs-578T = system: Hs-578T
KM12 = system: KM12
LOX IMVI = system: LOX IMVI
MDA-N = system: MDA-N
NCI-H23 = system: NCI-H23
NCI/ADR-RES = system: NCI/ADR-RES
OVCAR-8 = system: OVCAR-8
SF-539 = system: SF-539
SK-MEL-5 = system: SK-MEL-5
SK-OV-3 = system: SK-OV-3
SNB-19 = system: SNB-19
SR = system: SR

Measured: GI50

N#Cc1ccc(OC(=O)c2ccc(NC(=N)N)cc2)cc1.c1ccncc1
inactive: A549 > 100 µM | ACHN > 100 µM | BT-549 88.7 µM | CAKI-1 80 µM | COLO 205 39.1 µM | DU-145 > 100 µM | EKVX > 100 µM | HOP-62 > 100 µM | Hs-578T > 100 µM | KM12 57 µM | LOX IMVI 80.7 µM | MDA-N 64.3 µM | NCI-H23 > 100 µM | NCI/ADR-RES > 100 µM | OVCAR-8 > 100 µM | SF-539 73.6 µM | SK-MEL-5 > 100 µM | SK-OV-3 > 100 µM | SNB-19 56.2 µM | SR 51.9 µM

CCN(CC)C1Oc2cc3c(cc2C(c2cccc(OC)c2O)C1C)OCO3 (stereo not given)
inactive: A549 5.02 µM | ACHN 6.25 µM | BT-549 7.18 µM | CAKI-1 5.6 µM | COLO 205 3.03 µM | DU-145 5.35 µM | EKVX 10.6 µM | HOP-62 5.28 µM | Hs-578T 2.51 µM | KM12 4.1 µM | LOX IMVI 4.31 µM | MDA-N 1.7 µM | NCI-H23 5.79 µM | NCI/ADR-RES 4.62 µM | OVCAR-8 13.7 µM | SF-539 2.54 µM | SK-MEL-5 2.97 µM | SK-OV-3 4.99 µM | SNB-19 3.76 µM | SR 4.75 µM

Clc1ccc(OCC2NC3CCC2CC3)cn1 (stereo not given)
inactive: A549 37.9 µM | ACHN 33.3 µM | BT-549 68.7 µM | CAKI-1 42.5 µM | COLO 205 17.1 µM | DU-145 59.3 µM | EKVX 26.3 µM | HOP-62 22.8 µM | Hs-578T 57.1 µM | KM12 18.4 µM | LOX IMVI 18.4 µM | MDA-N 16.8 µM | NCI-H23 49.2 µM | NCI/ADR-RES 50.1 µM | OVCAR-8 31.5 µM | SF-539 20.7 µM | SK-MEL-5 17.6 µM | SK-OV-3 52.7 µM | SNB-19 34.4 µM | SR 18.7 µM

CC(=O)Nc1ccc(Nc2nc(=O)[nH]c(=O)[nH]2)cc1
inactive: A549 > 100 µM | ACHN > 100 µM | BT-549 > 100 µM | CAKI-1 > 100 µM | COLO 205 > 100 µM | DU-145 > 100 µM | EKVX > 100 µM | HOP-62 > 100 µM | Hs-578T > 100 µM | KM12 > 100 µM | LOX IMVI > 100 µM | MDA-N > 100 µM | NCI-H23 > 100 µM | NCI/ADR-RES > 100 µM | OVCAR-8 > 100 µM | SF-539 > 100 µM | SK-MEL-5 > 100 µM | SK-OV-3 > 100 µM | SNB-19 > 100 µM | SR > 100 µM

C#CCn1c(I)cc2c(c1=O)COC(=O)[C@]2(O)CC
inactive: A549 > 100 µM | ACHN > 100 µM | BT-549 > 100 µM | CAKI-1 > 100 µM | COLO 205 > 100 µM | DU-145 > 100 µM | EKVX > 100 µM | HOP-62 > 100 µM | Hs-578T > 100 µM | KM12 > 100 µM | LOX IMVI > 100 µM | MDA-N > 100 µM | NCI-H23 > 100 µM | NCI/ADR-RES > 100 µM | OVCAR-8 > 100 µM | SF-539 > 100 µM | SK-MEL-5 > 100 µM | SK-OV-3 > 100 µM | SNB-19 > 100 µM | SR > 100 µM

COc1c(C)c2c(c(=O)c3c(C)cccc3n2C)c2c1c(=O)c1c(C)cccc1n2C
inactive: A549 > 10 µM | ACHN > 10 µM | BT-549 > 10 µM | CAKI-1 > 10 µM | COLO 205 > 10 µM | DU-145 > 10 µM | EKVX > 10 µM | HOP-62 > 10 µM | Hs-578T > 10 µM | KM12 > 10 µM | LOX IMVI > 10 µM | MDA-N > 10 µM | NCI-H23 > 10 µM | NCI/ADR-RES 9.18 µM | OVCAR-8 9.66 µM | SF-539 > 10 µM | SK-MEL-5 > 10 µM | SK-OV-3 > 10 µM | SNB-19 > 10 µM | SR > 10 µM

CCCCOC(=O)Nc1ccc(S(=O)(=O)Nc2ccccc2Cl)cc1
inactive: A549 32.5 µM | ACHN 27.8 µM | BT-549 22.5 µM | CAKI-1 19.5 µM | COLO 205 20.7 µM | DU-145 30.3 µM | EKVX 20.7 µM | HOP-62 21.7 µM | Hs-578T 21.5 µM | KM12 24 µM | LOX IMVI 18.1 µM | MDA-N 17.6 µM | NCI-H23 25.6 µM | NCI/ADR-RES 18.2 µM | OVCAR-8 21.3 µM | SF-539 17.6 µM | SK-MEL-5 12 µM | SK-OV-3 16.8 µM | SNB-19 22.6 µM | SR 4.04 µM

COC(=O)Nc1nc2cc(S(=O)(=O)n3nnc4ccccc43)ccc2[nH]1
inactive: A549 > 100 µM | ACHN 59.4 µM | BT-549 17.6 µM | CAKI-1 54.2 µM | COLO 205 > 100 µM | DU-145 > 100 µM | EKVX > 100 µM | HOP-62 15.8 µM | Hs-578T 21.3 µM | KM12 > 100 µM | LOX IMVI > 100 µM | MDA-N > 100 µM | NCI-H23 41.7 µM | NCI/ADR-RES > 100 µM | OVCAR-8 > 100 µM | SF-539 10.2 µM | SK-MEL-5 > 100 µM | SK-OV-3 17.1 µM | SNB-19 29.9 µM | SR 75.2 µM

C=C1CCCC2[C@](C)(CC3=C(Cl)C(=O)C=C(OC)C3=O)C(C)CC[C@]12C (stereo not given in full)
inactive: A549 5.27 µM | ACHN 4.66 µM | BT-549 5 µM | CAKI-1 3.39 µM | COLO 205 3.37 µM | DU-145 8.04 µM | EKVX 2.02 µM | HOP-62 6.55 µM | Hs-578T 8.71 µM | KM12 2.26 µM | LOX IMVI 1.38 µM | MDA-N 6.95 µM | NCI-H23 4.49 µM | NCI/ADR-RES 3.99 µM | OVCAR-8 2.93 µM | SF-539 2.33 µM | SK-MEL-5 6.43 µM | SK-OV-3 20.7 µM | SNB-19 7.21 µM | SR 1.47 µM

O=C1Oc2ccccc2C(=O)/C1=C/NC(=S)NCCc1ccccc1
inactive: A549 49 µM | ACHN 19.2 µM | BT-549 20.2 µM | CAKI-1 35.3 µM | COLO 205 48.4 µM | DU-145 23.4 µM | EKVX 63.7 µM | HOP-62 51.8 µM | Hs-578T 36.6 µM | KM12 37.2 µM | LOX IMVI 42.9 µM | MDA-N 32.8 µM | NCI-H23 33.1 µM | NCI/ADR-RES 38.7 µM | OVCAR-8 29.2 µM | SF-539 31.2 µM | SK-MEL-5 45.7 µM | SK-OV-3 33.6 µM | SNB-19 37.7 µM | SR 14.6 µM

COC(=O)c1c2c(cc3c1CCC3)CCC2
inactive: A549 61.2 µM | ACHN > 100 µM | BT-549 95.9 µM | CAKI-1 72.4 µM | COLO 205 96.2 µM | DU-145 65.8 µM | EKVX 39.6 µM | HOP-62 > 100 µM | Hs-578T 35.8 µM | KM12 65.3 µM | LOX IMVI 39.4 µM | MDA-N 55.3 µM | NCI-H23 80.7 µM | NCI/ADR-RES > 100 µM | OVCAR-8 > 100 µM | SF-539 92.7 µM | SK-MEL-5 15.9 µM | SK-OV-3 91.4 µM | SNB-19 > 100 µM | SR 18.2 µM

COC(OC)C1(c2ccccc2)Oc2ccccc2C1=O (stereo not given)
inactive: A549 > 100 µM | ACHN > 100 µM | BT-549 85.9 µM | CAKI-1 > 100 µM | COLO 205 > 100 µM | DU-145 > 100 µM | EKVX > 100 µM | HOP-62 > 100 µM | Hs-578T > 100 µM | KM12 > 100 µM | LOX IMVI > 100 µM | MDA-N > 100 µM | NCI-H23 50.1 µM | NCI/ADR-RES 80.7 µM | OVCAR-8 > 100 µM | SF-539 > 100 µM | SK-MEL-5 65.6 µM | SK-OV-3 > 100 µM | SNB-19 > 100 µM | SR > 100 µM

COC(=O)[C@H](CC(C)C)NC1=C(Cl)C(=O)c2c(O)ccc(O)c2C1=O
inactive: A549 7.24 µM | ACHN > 10 µM | BT-549 > 10 µM | CAKI-1 > 10 µM | COLO 205 4.34 µM | DU-145 > 10 µM | EKVX > 10 µM | HOP-62 > 10 µM | Hs-578T > 10 µM | KM12 6.43 µM | LOX IMVI 1.8 µM | MDA-N 8.73 µM | NCI-H23 6.53 µM | NCI/ADR-RES > 10 µM | OVCAR-8 > 10 µM | SF-539 9.02 µM | SK-MEL-5 > 10 µM | SK-OV-3 > 10 µM | SNB-19 > 10 µM | SR > 10 µM

CCNC(=S)N/N=C1\C(=O)Nc2ccc([N+](=O)[O-])cc21
inactive: A549 35.7 µM | ACHN 31.2 µM | BT-549 > 100 µM | CAKI-1 11.9 µM | COLO 205 > 100 µM | DU-145 33 µM | EKVX 50.5 µM | HOP-62 27.7 µM | Hs-578T 98.9 µM | KM12 52.7 µM | LOX IMVI 61.4 µM | MDA-N > 100 µM | NCI-H23 > 100 µM | NCI/ADR-RES 32.8 µM | OVCAR-8 34.7 µM | SF-539 30.2 µM | SK-MEL-5 35.1 µM | SK-OV-3 39.4 µM | SNB-19 45.4 µM | SR 31.3 µM
